For 93 molecules, melting point results are on record in a melting point compilation (Tetko et al.; mined from patent text by program, amines drawn as free bases though some values may be those of a salt).

As usually defined, the melting point is the temperature, or range, at which the solid turns liquid. Turning to `CSCC[C@H](NC(=O)OC(C)(C)C)C(=O)Oc1ccc(NC(C)=O)cc1`, the melting point was in the range of 225 to 228 °C.

On to `CCCCCCC(=O)Nc1cccc2c1C(=O)N(C1(C)CCC(=O)NC1=O)C2=O` (stereo not drawn), for which the melting point is 172 to 174 °C.

`O=S1CCN(c2nc(N3CCNCC3)cc3c(Cl)cccc23)CC1` returned a melting point of 215 to 217 °C.

The molecule `Cn1ncc(N2CCCCC2)c(C=NO)c1=O` yielded a melting point of 170 to 171 °C.

On to `NC(=O)C1(c2ccccc2)CCN(Cc2ccccc2)C1` (stereo not drawn), for which the melting point lay in the range of 88 to 90 °C.

`CC(=O)NC[C@H]1CN(c2ccc(N3CCC(C#N)(Nc4ccccc4)CC3)c(F)c2)C(=O)O1` came in with a melting point of 81 to 85 °C.

The molecule `O=C(C(CCCl)c1ccccc1)N1CCCCCC1` (stereo not drawn) returned a melting point of 50 to 53 °C.

`COC(=O)c1ccc(C=NNc2cc(C(C)(C)C)cc(C(C)(C)C)c2)cc1` came in with a melting point of 215 to 220 °C.

`CC(C)(C)n1cc(CN(Cc2cn(CCO)nn2)Cc2cn(C(C)(C)C)nn2)nn1`: the melting point fell in the range of 82 to 83 °C.

In the case of `Oc1cc(-c2ncc(C(F)(F)F)cc2F)c(F)cc1Cl`, the melting point was 94 to 96 °C.

As for `CCCN(CCC)C(Cc1cccc2[nH]cnc12)C(=O)OCC` (stereo not drawn), the melting point was in the range of 78 to 80 °C.

For the molecule `Cc1noc(NS(=O)(=O)c2ccccc2F)c1Br`, the melting point is 87 to 89 °C.

`CC(=O)c1cc2ccccc2cn1`: the melting point was in the range of 84.4 to 86.8 °C.

`Nc1cc(C=O)nc(C2CCC2)c1F`: the melting point fell in the range of 134 to 135 °C.

For the molecule `NC(=O)CNc1ncccc1NC(=O)c1ccccn1`, the melting point lay within 188 to 190 °C.

On to `COc1cc(N)c(Cl)cc1C(=O)NCC1CCN(CCCCCN)CC1`, for which the melting point fell in the range of 60 to 63 °C.

For `NC(=O)N(O)CCNC(=O)c1cccc(S(=O)(=O)c2ccc(Cl)cc2)c1`, the melting point lay in the range of 183 to 186 °C.

`COc1ccc(C2NCCc3c2[nH]c2ccccc32)cc1F` (stereo not drawn) had a melting point of 68 °C.

Consider `COC(=O)Cn1c(CCc2ccccc2)ccc(NC(=O)OCc2ccccc2)c1=O`, for which the melting point lay within 102 to 104 °C.

The molecule `COC(=O)c1cc2n(c1)CCc1ccccc1C2=O` showed a melting point of 125 to 127 °C.

`O=C(Nc1ccc(Br)c(C(F)(F)F)c1)c1cccnc1NCn1ccccc1=O` displayed a melting point of 202 to 205 °C.

`CC1CCC2(OC1)OC1CC3C4CCC5CC(O[Si](C)(C)C)CCC5(C)C4CCC3(C)C1C2C` (stereo not drawn) yielded a melting point of 197 to 198 °C.

In turn, `Cn1cc(C(=O)NCc2ccc(Cl)cc2)c(=O)c2cc(CCCCO)oc21` had a melting point of 157 to 160 °C.

With `CN1CCC[C@H]1c1cnc(Cl)cc1P(C(C)(C)C)C(C)(C)C`, the melting point was in the range of 125 to 127 °C.

`COCCOc1ccc([N+](=O)[O-])cc1[N+](=O)[O-]` displayed a melting point of 31 to 33 °C.

Turning to `CCOC(=O)CC(c1ccccc1)(c1ccccc1)c1ncc[nH]1`, the melting point amounted to 75 °C.

With `O=c1[nH]c2c(Cl)cccc2c(=O)n1CCCN1CC=C(c2cccc(Cl)c2)CC1`, the melting point was in the range of 210 to 215 °C.

`COc1ccc(C(C)C)cc1CN[C@H]1[C@H]2CCN(C[C@@H]2C(=O)NC(C)C(N)=O)[C@H]1C(c1ccccc1)c1ccccc1` (stereo partly drawn) returned a melting point of 243 to 245 °C.

Consider `CCCOc1ccc2c(c1)C(OS(=O)(=O)F)=C(C(=O)OC)[C@H]2c1ccc2c(c1)OCO2`, for which the melting point lay within 160 to 161 °C.

As for `Clc1ccc(-c2cnccn2)c(Cl)c1`, the melting point was in the range of 131 to 132 °C.

As to `Cc1cc(C)cc(S(=O)(=O)c2ccc(N)cc2)c1`, the melting point was 178 to 179 °C.

`O=C(OC1COCCC1=O)c1ccccc1` (stereo not drawn) displayed a melting point of 76 to 77 °C.

The molecule `COc1ccnc(CCc2nc3cncnc3[nH]2)c1` displayed a melting point of 150 to 152 °C.

As for `CCOC(=O)C12CCNC(=O)CC1COC2=O` (stereo not drawn), the melting point fell in the range of 137 to 138 °C.

Molecule `CN1CC(C(=O)CN2CCCCC2)CC2c3cccc4[nH]cc(c34)CC21` (stereo not drawn) gave a melting point of 168 to 170 °C.

`NS(=O)(=O)c1cccc(C2(O)CCCC2)c1` had a melting point of 155 °C.

`CCOC(=O)Cc1nsc(NC(=O)c2ccccc2)n1` had a melting point of 119 to 120 °C.

In the case of `O=C1Cc2c(Oc3ccccc3)ccc(Cl)c2N1`, the melting point was in the range of 200 to 202 °C.

For the molecule `CC(C)(C)OC(=O)NC1C=Cc2ccccc2CC1` (stereo not drawn), the melting point lay in the range of 146 to 148 °C.

`O=[N+]([O-])c1ccc(OC(F)(F)c2ccccc2)cc1` registered a melting point of 46 to 48 °C.

`CCCc1c(N)c(C(C)=O)cc(C(C)=O)c1O` yielded a melting point of 138 to 139 °C.

Molecule `CC(C)S(=O)(=O)c1ccc2c(c1)nc(CC1(C)CCCC1)n2CC1CC1` came in with a melting point of 122 °C.

In turn, `COc1cc2c(cc1OC)CN(C(=O)Cc1ccc(-c3ccccc3)cc1)CC2` had a melting point of 109 to 111 °C.

For `Cc1ccccc1-c1ccc(C(=O)Nc2ccc3cc(CN4CCCC4)cnc3c2C)cc1`, the melting point is 150 to 151 °C.

For the molecule `Cc1ccc(Br)c(C)c1C#N`, the melting point came to 60 °C.

Regarding `CCS(=O)(=O)c1ccc(C(=O)NCc2ccc3c(c2)C(=O)N(C2(C)CCC(=O)NC2=O)C3=O)nc1` (stereo not drawn), the melting point lay in the range of 145 to 147 °C.

Molecule `O=C(NC1C2CC3CC(C2)CC1C3)C1CCCCN1` (stereo not drawn) gave a melting point of 112 to 114 °C.

`O=C1C(O)N=C(c2ccccc2F)c2ccccc2N1C1CCNCC1` (stereo not drawn): the melting point was in the range of 190 to 192 °C.

On to `Cc1cccc(O[C@@H]2CCN(S(C)(=O)=O)CC[C@H]2O)c1C` (relative stereo), for which the melting point fell in the range of 112 to 115 °C.

The molecule `CCOC(=O)C(=CNc1csnn1)C(=O)c1cc(F)c(F)cc1F` showed a melting point of 104 to 106 °C.

With `CN1CCN(C(=O)c2ccc(CCc3cc4cc(C#N)ccc4o3)cc2)CC1`, the melting point lay in the range of 115 to 116 °C.

For the molecule `CN1Cc2c(C#CCO)ncn2-c2ccccc2C1=O`, the melting point was 240 to 241 °C.

`O=C(NN1CCCCC1)NS(=O)(=O)C=Cc1ccccc1` gave a melting point of 175 to 177 °C.

Consider `CCOC(=O)c1cn(CC)c2nn(C)cc2c1=O`, for which the melting point lay in the range of 170 to 172 °C.

For the molecule `COc1cc2c(cc1[N+](=O)[O-])N(CC(=O)N(C)C)C(=O)CN(CC(=O)N(C)C)C2`, the melting point was found to be 98 °C.

Molecule `Nc1ccc(Oc2ccc(S(=O)(=O)c3ccc(Oc4ccc(N)c(O)c4)cc3)cc2)cc1O` gave a melting point of 228 to 231 °C.

`Cc1cccc(C=Cc2ccncc2)n1` gave a melting point of 72 to 73 °C.

Molecule `CCCCCCCCCCCC#Cc1cnccc1C=CC(=O)O` registered a melting point of 177 to 178 °C.

Regarding `Cn1c(-c2cccc3[nH]c(-c4ccncc4)cc23)n[nH]c1=O`, the melting point is over 300 °C.

On to `CC1C(=O)Oc2cc(C3CCCCC3)ccc21` (stereo not drawn), for which the melting point lay within 87 to 89 °C.

`COC(=O)c1ccc(SCc2cccc(Cl)c2)cn1`: the melting point lay in the range of 75 to 77 °C.

Regarding `Nc1c(NCCCO)cccc1OCc1ccccc1`, the melting point is 82 to 83 °C.

On to `COCc1cc(-c2nc(-c3cnc(N)c(C)c3)no2)ccc1-c1ccccc1F`, for which the melting point is 162 to 164 °C.

Regarding `Cc1cc(OCCC[Si](C)(C)C)c(Cl)cc1N(C#N)C=N`, the melting point lay within 143 to 144 °C.

Molecule `Cc1ccc(S)c(C=O)c1` showed a melting point of 181 to 184 °C.

In turn, `O=C1NC(=O)C2(C=Cc3cscc32)N1` (stereo not drawn) came in with a melting point of 241 to 243 °C.

For `Cc1ccc(-c2nn(-c3cccc(OC(F)(F)F)c3)c(N)c2C(N)=O)cc1`, the melting point was 177 to 179 °C.

For the molecule `COc1ccc(NC(N)=S)c(N2CCOCC2)c1`, the melting point was found to be 175 °C.

`COCc1ccc2ccc(C=O)nc2c1Cl` displayed a melting point of 118 to 121 °C.

`CSc1nc(CC2CCN(c3ccc(C(C)(C)C)cc3)CC2)nc(C(=O)NCC(=O)O)c1O` displayed a melting point of 135 to 136 °C.

`O=C1Cc2c(cccc2C(=O)O)Sc2ccc(F)cc21` showed a melting point of 242 to 244 °C.

The molecule `CC12CCC(C(=O)CC1=O)C2(C)C` (stereo not drawn) registered a melting point of 220 °C.

Molecule `CC(O)Cn1cnc2c1c(=O)n(CC1CCCC1)c(=O)n2CC1CCCC1` (stereo not drawn) returned a melting point of 139 °C.

Take `FC(F)(F)c1sc(S)nc1Cl`: the melting point was 142 to 144 °C.

For `COCCCNS(=O)(=O)NC(=O)OCc1ccccc1`, the melting point lay in the range of 91 to 93 °C.

For the molecule `CCCC(=O)c1ccnc(Cl)c1NC(=O)c1ccccc1F`, the melting point is 142 °C.

Take `CO[C@H]1CC[C@H](N(C)C(=S)c2ccc3nonc3c2)CC1`: the melting point is 137 to 138 °C.

`CC(C)N(C)S(=O)(=O)NC(=O)c1cc(N)c(F)cc1Cl`: the melting point lay in the range of 160 to 162 °C.

Molecule `COc1cc(Nc2c(C#N)cnc3cc(-c4ccc(CN5CCOCC5)o4)ccc23)c(Cl)cc1Cl` registered a melting point of 182 to 183 °C.

On to `COCCCN1C(=O)CS(=Cc2ccccc2Cl)C1=O` (stereo not drawn), for which the melting point stood at 83 °C.

Consider `CCCN(CC)c1cc(C)nc(Oc2c(C)cc(C)cc2C)c1C`, for which the melting point fell in the range of 167 to 169 °C.

The molecule `CC1c2cc(C(C)(C)C)cc(C(C)(C)C)c2OP(Cl)Oc2c1cc(C(C)(C)C)cc2C(C)(C)C` (stereo not drawn) had a melting point of 194 to 198 °C.

Molecule `CC=C(CC)c1nc(C)nc2c1c(C)c(C)n2-c1c(C)cc(C)cc1C` had a melting point of 59 to 61 °C.

The molecule `CC(=O)N1CCN=C1Nc1c(C)c(C)nn1C` showed a melting point of 212 to 215 °C.

Take `O=[N+]([O-])c1cnc2cc3c(cc2c1-c1ccccc1Cl)CCC3`: the melting point was 175 to 176 °C.

The molecule `CCOC(=O)Nc1cc(COC(=O)Nc2ccc(N(CCCl)CCCl)cc2)cc(Nc2c3ccccc3nc3ccccc23)c1` yielded a melting point of 178 to 182 °C.

With `CCc1cccc(CC(=O)O)c1OCCCc1cn(-c2ccc(C(F)(F)F)cn2)nc1C(C)C`, the melting point was 155 to 156 °C.

Regarding `COC(=O)c1ccc(-c2nc(-c3ccccc3)co2)cc1`, the melting point lay in the range of 175 to 176 °C.

On to `CN(C)c1ccc(-c2cc(=O)c(C(=O)O)cn2-c2ccc(O)c(O)c2)cc1`, for which the melting point lay in the range of 223 to 227 °C.

In the case of `Cc1noc(NS(=O)(=O)c2ccccc2-c2ccc(-c3ncco3)cc2Cn2c(=O)oc3ccccc32)c1C`, the melting point was in the range of 130 to 137 °C.

Molecule `NC(c1ccnc2cc(Cl)ccc12)C1CCCC(CNc2ccnc3cc(Cl)ccc23)C1` (stereo not drawn) showed a melting point of 92 to 95 °C.

Molecule `COC(=O)/C=C/c1ccc(OCc2nc(-c3ccccc3)oc2C)nc1` showed a melting point of 116 to 117 °C.

`Oc1ccc(C2CCC3(CC2)OCCO3)cc1` came in with a melting point of 152 to 153 °C.
